Experiments:
johnsongrass = assay: Test C preemergence; format: in vivo, Sorghum halepense; details: for Plant response rating (scale of 0 to 100), Johnsongrass: Preemergence; for Johnsongrass plant response rating / Plant response rating, Johnsongrass: preemergence; for Plant response rating, Johnsongrass: 125 g ai/ha, scale 0 to 100, 0 = no effect, 100 = complete control
Method in brief: (§1)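 Seeds were sown in a loam soil–sand blend and sprayed preemergence with compounds formulated in a non-phytotoxic solvent mixture containing surfactant. Postemergence plants, grown in peat/vermiculite medium to 2–18 cm (1- to 4-leaf stage), received the same formulation. After 13 to 15 days in a greenhouse, injury was rated visually against controls (0 = no effect, 100 = complete control).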

foxtail, giant [1] = assay: Test A preemergence; format: in vivo, Setaria faberii; details: preemergence
Method in brief: (§2)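 Scoring was visual, on a scale where 100 means complete control and 0 means no effect, comparing treated with untreated plants around 10 days post-application. Compounds in surfactant-containing non-phytotoxic solvent were sprayed onto soil preemergence or onto one- to two-leaf seedlings (2–10 cm) postemergence.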

foxtail, giant [2] = assay: Test C preemergence; format: in vivo, Setaria faberii; details: for Plant response rating (scale of 0 to 100), Foxtail, Giant: Preemergence; for Foxtail, Giant plant response rating / Plant response rating, Foxtail, Giant: preemergence; for Plant response rating, Foxtail, Giant: 125 g ai/ha, scale 0 to 100, 0 = no effect, 100 = complete control
Method in brief: as §1

blackgrass = assay: Test C postemergence; format: in vivo, Alopecurus myosuroides; details: for Plant response rating (scale of 0 to 100 where 0 is no effect and 100 is complete control), Blackgrass: Postemergence, 31 g ai/ha, visually evaluated after 13 to 15 days; for Blackgrass plant response rating / Plant response rating, Blackgrass: postemergence; for Blackgrass plant response rating: 62 g ai/ha, scale 0 to 100
Method in brief: as §1

rice = assay: Test B flood; format: in vivo, Oryza sativa; details: 250 g ai/ha, visual rating on 0 to 100 scale (0 no effect, 100 complete control), 13 to 15 days
Method in brief: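 Paddy-water application: seedlings at 2-leaf stage, flood depth 3 cm maintained for the test duration. Evaluation after 13–15 days in the greenhouse by eye relative to controls; 0–100 scale.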

wheat = assay: Test A postemergence; format: in vivo, Triticum aestivum
Method in brief: as §2

pigweed = assay: Test A preemergence; format: in vivo, Amaranthus retroflexus; details: preemergence
Method in brief: as §2

lambsquarters = assay: Test C preemergence; format: in vivo, Chenopodium album; details: for Plant response rating (scale of 0 to 100), Lambsquarters: Preemergence; for Lambsquarters plant response rating / Plant response rating, Lambsquarters: preemergence; for Plant response rating, Lambsquarters: 125 g ai/ha, scale 0 to 100, 0 = no effect, 100 = complete control
Method in brief: as §1

nutsedge, yellow = assay: Test C postemergence; format: in vivo, Cyperus esculentus; details: for Plant response rating (scale of 0 to 100 where 0 is no effect and 100 is complete control), Nutsedge, Yellow: Postemergence, 31 g ai/ha, visually evaluated after 13 to 15 days; for Nutsedge, Yellow plant response rating / Plant response rating, Nutsedge, Yellow: postemergence; for Nutsedge, Yellow plant response rating: 62 g ai/ha, scale 0 to 100
Method in brief: as §1

barnyardgrass = assay: Test C postemergence; format: in vivo, Echinochloa crus-galli; details: for Plant response rating (scale of 0 to 100 where 0 is no effect and 100 is complete control), Barnyardgrass: Postemergence, 31 g ai/ha, visually evaluated after 13 to 15 days; for Barnyardgrass plant response rating / Plant response rating, Barnyardgrass: postemergence; for Barnyardgrass plant response rating: 62 g ai/ha, scale 0 to 100
Method in brief: as §1

crabgrass, large = assay: Test C postemergence; format: in vivo, Digitaria sanguinalis; details: for Plant response rating (scale of 0 to 100 where 0 is no effect and 100 is complete control), Crabgrass, Large: Postemergence, 31 g ai/ha, visually evaluated after 13 to 15 days; for Crabgrass, Large plant response rating / Plant response rating, Crabgrass, Large: postemergence; for Crabgrass, Large plant response rating: 62 g ai/ha, scale 0 to 100
Method in brief: as §1

velvetleaf = assay: Test C postemergence; format: in vivo, Abutilon theophrasti; details: for Plant response rating (scale of 0 to 100 where 0 is no effect and 100 is complete control), Velvetleaf: Postemergence, 31 g ai/ha, visually evaluated after 13 to 15 days; for Velvetleaf plant response rating / Plant response rating, Velvetleaf: postemergence; for Velvetleaf plant response rating: scale 0 to 100
Method in brief: as §1

[3] = 31 g ai/ha, visual rating, scale 0 to 100 (0 no effect, 100 complete control), 13 to 15 days
[4] = 62 g ai/ha, scale 0 to 100 (0 no effect, 100 complete control), 13 to 15 days
[5] = 125 g ai/ha, visual injury, 0 to 100 scale, approx. 10 days
[6] = 500 g ai/ha, visual injury after approx. 10 days, 0 to 100 scale (0 no effect, 100 complete control)
[7] = 250 g ai/ha, scale 0 to 100 (0 no effect, 100 complete control)
[8] = 125 g ai/ha, scale 0 to 100, 0 no effect, 100 complete control
[9] = Postemergence, 500 g ai/ha, 0 to 100 scale (0 no effect, 100 complete control)
[10] = postemergence, 125 g ai/ha, about 10 days, visual rating on 0 to 100 scale (0 no effect, 100 complete control)
[11] = 250 g ai/ha, scale 0 to 100, 0 is no effect, 100 is complete control
[12] = 125 g ai/ha, visual injury approx. 10 days after treatment

Compound | Johnsongrass plant response rating (johnsongrass; [3]) | Johnsongrass plant response rating (johnsongrass; [4]) | Plant response rating, Johnsongrass (johnsongrass; 13 to 15 days) | Foxtail, Giant plant response rating (foxtail, giant [1]; [6]) | Foxtail, Giant plant response rating (foxtail, giant [2]; [3]) | Foxtail, Giant plant response rating (foxtail, giant [2]; [4]) | Plant response rating, Foxtail, Giant (foxtail, giant [2]; 13 to 15 days) | Plant response rating (scale of 0 to 100 where 0 is no effect and 100 is complete control), Blackgrass (blackgrass) | Blackgrass plant response rating (blackgrass) | Plant response rating, Blackgrass (blackgrass; [7]) | Plant response rating, Blackgrass (blackgrass; [8]) | Plant response rating, Rice (rice) | Wheat plant response rating (wheat; [9]) | Lambsquarters plant response rating (lambsquarters; [3]) | Lambsquarters plant response rating (lambsquarters; [4]) | Plant response rating, Lambsquarters (lambsquarters; 13 to 15 days) | Plant response rating (scale of 0 to 100 where 0 is no effect and 100 is complete control), Nutsedge, Yellow (nutsedge, yellow) | Nutsedge, Yellow plant response rating (nutsedge, yellow) | Plant response rating, Nutsedge, Yellow (nutsedge, yellow; [7]) | Plant response rating, Nutsedge, Yellow (nutsedge, yellow; [8]) | also measured
CCCc1cc(C(=O)NCC(F)(F)F)nn1Cc1ccnc(OC(F)F)c1 [Compound 127] | 55 | 55 | 80 | 100 | 98 | 100 | 100 | 20 | 15 | 40 | 10 | 20 | 90 | 100 | 80 | 90 | 5 | 5 | 25 | 15 | Plant response rating (scale of 0 to 100), Johnsongrass (johnsongrass; 250 g ai/ha): 90; Foxtail, Giant plant response rating (foxtail, giant [1]; [5]): 90; Plant response rating (scale of 0 to 100), Foxtail, Giant (foxtail, giant [2]; 250 g ai/ha): 98; Wheat plant response rating (wheat; [10]): 80; Pigweed plant response rating (pigweed; [5]): 90; Pigweed plant response rating (pigweed; [6]): 100; Plant response rating (scale of 0 to 100), Lambsquarters (lambsquarters; 250 g ai/ha): 100; Plant response rating (scale of 0 to 100 where 0 is no effect and 100 is complete control), Barnyardgrass (barnyardgrass): 5; Barnyardgrass plant response rating (barnyardgrass): 5; Plant response rating, Barnyardgrass (barnyardgrass; [7]): 15; Plant response rating, Barnyardgrass (barnyardgrass; [8]): 10; Plant response rating (scale of 0 to 100 where 0 is no effect and 100 is complete control), Crabgrass, Large (crabgrass, large): 10; Crabgrass, Large plant response rating (crabgrass, large): 10; Plant response rating, Crabgrass, Large (crabgrass, large; [7]): 55; Plant response rating, Crabgrass, Large (crabgrass, large; [8]): 20; Plant response rating (scale of 0 to 100 where 0 is no effect and 100 is complete control), Velvetleaf (velvetleaf): 10; Velvetleaf plant response rating (velvetleaf; 62 g ai/ha): 15; Plant response rating, Velvetleaf (velvetleaf; [7]): 70; Plant response rating, Velvetleaf (velvetleaf; [8]): 45
CCOc1cc(C(=O)NCC(F)(F)F)nn1Cc1ccnc(OC(F)F)c1 [Compound 128] | 45 | 85 | 95 | 100 | 98 | 100 | 100 | 10 | 5 | 80 | 10 | 30 | 90 | 98 | 100 | 98 | 5 | 5 | 25 | 10 | Plant response rating (scale of 0 to 100), Johnsongrass (johnsongrass; 250 g ai/ha): 98; Foxtail, Giant plant response rating (foxtail, giant [1]; [5]): 100; Plant response rating (scale of 0 to 100), Foxtail, Giant (foxtail, giant [2]; 250 g ai/ha): 100; Wheat plant response rating (wheat; [10]): 70; Pigweed plant response rating (pigweed; [5]): 100; Pigweed plant response rating (pigweed; [6]): 100; Plant response rating (scale of 0 to 100), Lambsquarters (lambsquarters; 250 g ai/ha): 98; Plant response rating (scale of 0 to 100 where 0 is no effect and 100 is complete control), Barnyardgrass (barnyardgrass): 5; Barnyardgrass plant response rating (barnyardgrass): 5; Plant response rating, Barnyardgrass (barnyardgrass; [7]): 60; Plant response rating, Barnyardgrass (barnyardgrass; [8]): 15; Plant response rating (scale of 0 to 100 where 0 is no effect and 100 is complete control), Crabgrass, Large (crabgrass, large): 5; Crabgrass, Large plant response rating (crabgrass, large): 5; Plant response rating, Crabgrass, Large (crabgrass, large; [7]): 85; Plant response rating, Crabgrass, Large (crabgrass, large; [8]): 30; Plant response rating (scale of 0 to 100 where 0 is no effect and 100 is complete control), Velvetleaf (velvetleaf): 10; Velvetleaf plant response rating (velvetleaf; 62 g ai/ha): 15; Plant response rating, Velvetleaf (velvetleaf; [7]): 65; Plant response rating, Velvetleaf (velvetleaf; [8]): 35
CCCNC(=O)c1cc(OCC)n(Cc2ccnc(OC(F)F)c2)n1 [Compound 136] | 60 | 85 | 98 | 100 | 100 | 100 | 100 | 5 | 10 | 40 | 15 | 35 | 90 | 98 | 98 | 98 | 5 | 5 | 5 | 5 | Johnsongrass plant response rating (johnsongrass; [11]): 100; Foxtail, Giant plant response rating (foxtail, giant [1]; [5]): 100; Foxtail, Giant plant response rating (foxtail, giant [2]; [11]): 100; Wheat plant response rating (wheat; [10]): 60; Pigweed plant response rating (pigweed; [5]): 100; Pigweed plant response rating (pigweed; [6]): 100; Lambsquarters plant response rating (lambsquarters; [11]): 100; Plant response rating (scale of 0 to 100 where 0 is no effect and 100 is complete control), Barnyardgrass (barnyardgrass): 5; Barnyardgrass plant response rating (barnyardgrass): 5; Plant response rating, Barnyardgrass (barnyardgrass; [7]): 45; Plant response rating, Barnyardgrass (barnyardgrass; [8]): 5; Plant response rating (scale of 0 to 100 where 0 is no effect and 100 is complete control), Crabgrass, Large (crabgrass, large): 5; Crabgrass, Large plant response rating (crabgrass, large): 5; Plant response rating, Crabgrass, Large (crabgrass, large; [7]): 40; Plant response rating, Crabgrass, Large (crabgrass, large; [8]): 40; Plant response rating (scale of 0 to 100 where 0 is no effect and 100 is complete control), Velvetleaf (velvetleaf): 30; Velvetleaf plant response rating (velvetleaf; 62 g ai/ha): 55; Plant response rating, Velvetleaf (velvetleaf; [7]): 85; Plant response rating, Velvetleaf (velvetleaf; [8]): 60
CCCc1cc(C(=O)NC2CC2)nn1Cc1ccnc(OC(F)F)c1 [Compound 205] | 70 | 80 | 90 | 100 | 100 | 100 | 100 | 5 | 5 | 30 | 5 | 0 | 90 | 85 | 95 | 100 | 5 | 5 | 15 | 15 | Johnsongrass plant response rating (johnsongrass; [11]): 100; Foxtail, Giant plant response rating (0 to 100 scale) (foxtail, giant [1]; [12]): 100; Foxtail, Giant plant response rating (foxtail, giant [2]; [11]): 100; Wheat plant response rating (wheat; Postemergence, 125 g ai/ha, 0 to 100 scale, 0 no effect, 100 complete control): 70; Pigweed plant response rating (0 to 100 scale) (pigweed; [12]): 100; Lambsquarters plant response rating (lambsquarters; [11]): 100; Plant response rating (scale of 0 to 100 where 0 is no effect and 100 is complete control), Barnyardgrass (barnyardgrass): 10; Barnyardgrass plant response rating (barnyardgrass): 10; Plant response rating, Barnyardgrass (barnyardgrass; [7]): 50; Plant response rating, Barnyardgrass (barnyardgrass; [8]): 15; Plant response rating (scale of 0 to 100 where 0 is no effect and 100 is complete control), Crabgrass, Large (crabgrass, large): 5; Crabgrass, Large plant response rating (crabgrass, large): 10; Plant response rating, Crabgrass, Large (crabgrass, large; [7]): 65; Plant response rating, Crabgrass, Large (crabgrass, large; [8]): 45; Plant response rating, Velvetleaf (velvetleaf; [7]): 40; Velvetleaf plant response rating (velvetleaf): 40

Source: patent US20150105252A1, “SUBSTITUTED PYRAZOLES AS HERBICIDES” (E I DU PONT DE NEMOURS AND COMPANY, priority 2013, published 2015)
